# Reference: patent US20090269796A1, “METHODS OF DETECTING AND TREATING MYOCARDIAL ISCHEMIA AND MYOCARDIAL INFARCTION” (THE GENERAL HOSPITAL CORPORATION, priority 2007, published 2009)
# Assays:
# [1] = Simultaneous coronary sinus and peripheral plasma sampling after planned MI (13-patient subgroup), LC-MS/MS profiling; type: in vivo, human; conditions: elevated earlier in coronary sinus, FIG. 4 top panel
# Experimental: Blood was drawn at baseline (just prior to the onset of the ablation) and at minutes, 1 hour, 2 hours, 4 hours and 24 hours following the onset of injury as depicted in FIG. 1. 13 of the 36 patients consented to the placement of a coronary sinus catheter during the ablation, allowing for the simultaneous sampling from coronary sinus and femoral catheters at the baseline, 10-minute and 1-hour time points. The coronary sinus catheter was subsequently removed prior to the patient leaving the catheterization suite.
# Samples were obtained from femoral venous catheters during the procedure or, where indicated, from a catheter placed in the coronary sinus. Samples were collected in K2EDTA-treated tubes (Becton Dickinson). All blood samples were centrifuged at 2000×g for 10 minutes to pellet cellular elements. The supernatant plasma was then aliquoted and immediately frozen at −80° C. to minimize freeze-thaw degradation. Additional blood samples were sent to the clinical chemistry laboratory for evaluation of the standard cardiac markers creatine kinase (CK), CK-MB, and Troponin T (Roche Diagnostics).
# The specificity of the findings described above was further examined by exploring the anatomic origin of the metabolic changes. […]
# [2] = test system: Neonatal rat cardiomyocytes; test: Hypoxia-induced apoptosis (annexin V) of cardiomyocytes pretreated with individual metabolites; type: cell-based; conditions: metabolite added 5 minutes before 3 hours hypoxia; lowest concentration screened; annexin V-positive cells; FIG. 6
# Experimental: Neonatal rat cardiomyocytes were treated with individual metabolites previously identified using planned MI metabolomics. In the first, metabolites that are increased in the peripheral blood and/or the coronary sinus samples were prioritized. Neonatal cardiomyocytes were isolated from 1-day old rats, cultured for three days, and then challenged in a hypoxia chamber (<0.5% O2, 95% nitrogen and 5% CO2 at 37° C.) for 3 hours, as previously described.^18 Baseline apoptosis is typically ˜10%, which increases to ˜30% following hypoxic challenge, as assessed by FITC-conjugated annexin V staining. Metabolites at the indicated concentrations were added to experimental plates 5 minutes prior to the onset of hypoxia. Metabolites were examined at ˜2 fold reported blood concentrations (where available), as well as at one log increased concentration (see also Human Metabolomics Database, HMDB, at http://www.hmdb.ca). 30 minutes after reoxygenation, the number of annexin V-positive cells per five HPF was counted from n=3 culture plates. The data depicted represent the percent change in apoptosis relative to the hypoxia control for the lowest concentration of each metabolite screened. (*P<0.05 by unpaired student's t test). […] Accordingly, one would seek to inhibit the metabolite in question as part of treatment or prevention scheme.
# Accordingly, one would seek to administer the metabolite in question as part of treatment or prevention scheme. Such metabolites include, according to FIG. 6, G3P, inosine, malonic acid, TMNO, and orotic acid. Alternatively, one could administer a compound that upregulates a pathway that results in the production of the metabolite in question.
# [3] = Metabolite changes in peripheral plasma after planned MI (alcohol septal ablation), LC-MS/MS profiling; type: in vivo, human; conditions: FIG. 3, lower panel
# Description: A total of 36 patients undergoing planned MI using alcohol septal ablation for the treatment of symptomatic hypertrophic obstructive cardiomyopathy (HOCM) were included. Inclusion criteria for the cohort were: 1) primary HOCM; 2) septal thickness of 16 mm or greater; 3) resting outflow tract gradient of greater than 30 mmHg, or an inducible outflow tract gradient of at least 50 mm Hg; 4) symptoms refractory to optimal medical therapy; and 5) appropriate coronary anatomy. The most proximal accessible septal branch was instrumented using standard angioplasty guiding catheters and guidewires and 1.5 or 2.0 mm×9 mm Maverick™ balloon catheters. Radiographic and echocardiographic contrast injections confirmed proper selection of the septal branch and balloon catheter position. Ethanol was infused through the balloon catheter at 1 ml per minute. Additional injections in the same or other septal branches were administered as needed, causing cessation of blood flow to the isolated myocardium, and to reduce the gradient to <20 mmHg.^16 […]
# The three HPLC columns were connected in parallel via an automated switching valve on a robotic sample loader (Leap Technologies) to a triple quadrupole mass spectrometer (AB4000Q, Applied Biosystem/Sciex), operated in electrospray ionization mode using a turbo ion spray LC/MS interface. […] A total of 210 known metabolites were monitored for each sample. […]
Compound,Time after injury until elevation evident in the periphery [1],Mean % change in apoptosis vs. hypoxia control [2],Kinetic pattern of change in peripheral plasma after planned MI [3]
"O=P(O)(O)OCC(O)CO (stereo not drawn) [Glycerol-3-P, glycerol-3-phosphate]",120 min,reduces cell death,–
O=c1[nH]cnc2nc[nH]c12 [Hypoxanthine],–,potentiates cell death,–
OC[C@H]1O[C@@H](n2cnc3c(O)ncnc32)[C@H](O)[C@@H]1O [Inosine],–,reduces cell death,–
O=C(O)CC(O)C(=O)O (stereo not drawn) [Malic Acid],120 min,–,–
O=C(O)CC(=O)O [Malonic Acid],–,reduces cell death,–
O=C(O)c1cc(=O)[nH]c(=O)[nH]1 [Orotic Acid],–,reduces cell death,–
O=C(O)CCC(=O)O [Succinic Acid],–,potentiates cell death,–
NCCS(=O)(=O)O [Taurine],–,potentiates cell death,–
C[N+](C)(C)[O-] [Trimethylamine-N-Oxide],–,reduces cell death,–
Nc1ccccc1C(=O)O [anthanilic acid],–,–,Later-appearing
CN(CC(=O)O)C(=N)N [creatine],–,–,Later-appearing
